# Reference: PMC12624743 (ACS Infectious Diseases, 2025)
# What was measured:
# [1] = target: T1, N. gonorrhoeae topoisomerase IV ParC^D86N (Neisseria gonorrhoeae, UniProt P48374, D86N); test: DNA cleavage assay, ParC^D86N topoisomerase IV; type: biochemical
# T1 construct: His; made in house
# T1 sequence (P48374 1-768 D86N): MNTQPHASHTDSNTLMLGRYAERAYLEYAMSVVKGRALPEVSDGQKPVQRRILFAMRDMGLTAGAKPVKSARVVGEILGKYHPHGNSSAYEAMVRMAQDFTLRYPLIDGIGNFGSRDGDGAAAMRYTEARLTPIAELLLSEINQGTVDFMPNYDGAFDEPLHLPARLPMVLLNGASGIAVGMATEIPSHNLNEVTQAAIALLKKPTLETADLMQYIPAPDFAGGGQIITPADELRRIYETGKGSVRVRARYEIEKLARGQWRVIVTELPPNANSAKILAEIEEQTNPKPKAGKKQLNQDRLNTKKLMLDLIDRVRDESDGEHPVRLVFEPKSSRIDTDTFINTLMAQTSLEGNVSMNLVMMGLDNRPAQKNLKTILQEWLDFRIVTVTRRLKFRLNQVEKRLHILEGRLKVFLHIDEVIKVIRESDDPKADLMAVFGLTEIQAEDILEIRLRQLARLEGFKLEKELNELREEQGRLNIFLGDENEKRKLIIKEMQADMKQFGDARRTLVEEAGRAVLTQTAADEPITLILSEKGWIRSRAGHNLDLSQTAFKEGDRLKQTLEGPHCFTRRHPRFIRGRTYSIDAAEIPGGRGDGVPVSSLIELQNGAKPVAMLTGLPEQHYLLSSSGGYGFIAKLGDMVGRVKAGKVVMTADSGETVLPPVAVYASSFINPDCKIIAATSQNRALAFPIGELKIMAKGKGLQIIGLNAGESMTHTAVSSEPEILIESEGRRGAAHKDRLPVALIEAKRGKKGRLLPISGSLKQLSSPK
# Procedure: (§1) Some experiments replaced MgCl2 with an equivalent concentration of CaCl2 (10 mM), or 1.5 mM ATP was added to assay mixtures.
# (§2) Reactions were incubated at 37 °C for 30 min with WT and mutant (GyrA^D90N, GyrA^A92T, GyrA^S91F, GyrA^D95G, or GyrA^S91F/D95G) N. gonorrhoeae gyrase, 10 min with WT N. gonorrhoeae topoisomerase IV, and 20 min with mutant (ParC^D86N, ParC^S88P, ParC^S87N, or ParC^E91G) N. gonorrhoeae topoisomerase IV. Enzyme-DNA cleavage complexes were trapped by adding 2 μL of 5% SDS followed by 2 μL of 250 mM EDTA (pH 8.0). Proteinase K was added (2 μL of a 0.8 mg/mL solution), and reaction mixtures were incubated at 45 °C for 30 min to digest the enzyme. Samples were mixed with 2 μL of loading buffer and heated at 45 °C for 2 min prior to electrophoresis in 1% agarose gels in 40 mM Tris-acetate (pH 8.3), and 2 mM EDTA containing 0.5 μg/mL ethidium bromide. DNA bands were visualized by midrange ultraviolet light and quantified using an Alpha Innotech digital imaging system (Protein Simple). Single-stranded DNA cleavage was monitored by the conversion of negatively supercoiled to nicked plasmid molecules.
# [2] = target: T2, N. gonorrhoeae gyrase GyrA^D95G (Neisseria gonorrhoeae, UniProt P48371, D95G); test: Gyrase-catalyzed DNA supercoiling assay, GyrA^D95G; type: biochemical
# T2 construct: His; made in house
# Procedure: All proteins were His-tagged. N. gonorrhoeae WT gyrase (GyrA, GyrB) and topoisomerase IV (ParC, ParE) subunits as well as mutant GyrA^D90N, GyrA^A92T, GyrA^S91F, and GyrA^S91F/D95G gyrase and ParC^D86N and ParC^S88P topoisomerase IV were prepared as described previously. , N. gonorrhoeae mutant GyrA^D95G gyrase and mutant ParC^S87N and ParC^E91G topoisomerase IV were generated using a QuickChange II XL site-directed mutagenesis kit (Agilent Technologies) with custom primers for the desired mutations. […] The identities of all constructs were confirmed by DNA sequencing, and all enzymes were stored at −80 °C. In all assays, N. gonorrhoeae gyrase or topoisomerase IV was used as a 1:1 GyrA:GyrB or ParC:ParE mixture, respectively, and the stated enzyme concentration reflects that of the holoenzyme (A2B2).
# Samples were mixed with 2 μL of loading dye [60% sucrose, 10 mM Tris–HCl (pH 7.9), 0.5% bromophenol blue, and 0.5% xylene cyanol FF] and incubated at 45 °C for 2 min before being subjected to electrophoresis on 1% agarose gels in 100 mM Tris-borate (pH 8.3) and 2 mM EDTA. […] DNA bands were visualized with medium-range ultraviolet light and quantified using an Alpha Innotech digital imaging system (Protein Simple). DNA supercoiling was monitored by the conversion of relaxed to supercoiled plasmid.
# [3] = target: N. gonorrhoeae topoisomerase IV ParC^E91G (Neisseria gonorrhoeae, UniProt P48374, E91G); test: biochemical
# Procedure: as §1, §2
# [4] = tested on: N. gonorrhoeae topoisomerase IV ParC^E91G; test: biochemical; conditions: ParC E91G vs WT
# Procedure: as §1, §2
# [5] = target: T3, N. gonorrhoeae gyrase GyrA^S91F/D95G (Neisseria gonorrhoeae, UniProt P48371, D95G/S91F); test: DNA cleavage assay, GyrA^S91F/D95G gyrase; type: biochemical
# T3 construct: His; made in house
# Procedure: as §1, §2
# [6] = tested on: N. gonorrhoeae FA1090E (GyrA^WT/ParC^WT, efflux mutant); test: MIC by agar dilution, WT/WT efflux-mutant parental strain; type: cell-based; conditions: Neisseria gonorrhoeae, 48 h
# Procedure: Mutations in these efflux genes can result in increased efflux to multiple antibiotics. […] Parental and isogenic mutant strains generated that carried the efflux mutations mtrR-79 and norM ΔT T6 were designated as FA1090E (E for efflux positive). Only the additional GyrA and ParC genotypes are described in Table and in the text. The mutant that additionally expressed ParC^D86N was named FA1090E-2.
# Minimum inhibitory concentration (MIC) of test compounds was determined by an agar dilution method, the reference testing method for N. gonorrhoeae according to the standards of the Clinical and Laboratory Standards Institute and the CDC.
# T3 sequence (P48371 whole entry S91F/D95G): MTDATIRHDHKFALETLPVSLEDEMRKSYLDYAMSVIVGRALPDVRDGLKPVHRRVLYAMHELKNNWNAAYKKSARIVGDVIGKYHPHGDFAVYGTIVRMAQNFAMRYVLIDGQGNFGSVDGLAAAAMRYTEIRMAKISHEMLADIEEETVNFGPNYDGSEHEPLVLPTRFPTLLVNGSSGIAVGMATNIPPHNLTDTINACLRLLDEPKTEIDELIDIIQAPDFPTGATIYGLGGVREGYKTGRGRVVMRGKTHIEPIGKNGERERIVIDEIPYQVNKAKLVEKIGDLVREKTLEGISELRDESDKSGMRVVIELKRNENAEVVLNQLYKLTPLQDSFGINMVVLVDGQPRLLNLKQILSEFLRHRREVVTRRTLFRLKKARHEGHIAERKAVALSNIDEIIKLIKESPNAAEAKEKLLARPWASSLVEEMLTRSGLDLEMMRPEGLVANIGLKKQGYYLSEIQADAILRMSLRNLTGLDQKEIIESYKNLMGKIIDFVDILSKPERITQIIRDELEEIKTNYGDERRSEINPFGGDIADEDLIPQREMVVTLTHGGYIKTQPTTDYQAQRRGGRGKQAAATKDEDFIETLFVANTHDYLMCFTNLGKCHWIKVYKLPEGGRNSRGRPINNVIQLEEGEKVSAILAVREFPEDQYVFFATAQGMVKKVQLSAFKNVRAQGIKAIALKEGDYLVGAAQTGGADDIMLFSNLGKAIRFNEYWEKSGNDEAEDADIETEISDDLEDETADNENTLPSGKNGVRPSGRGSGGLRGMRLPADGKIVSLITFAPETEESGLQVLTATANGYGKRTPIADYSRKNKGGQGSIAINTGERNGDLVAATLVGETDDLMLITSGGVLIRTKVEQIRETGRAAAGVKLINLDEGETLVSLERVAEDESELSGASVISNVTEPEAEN
# T3 sequence (P22118 whole entry partner): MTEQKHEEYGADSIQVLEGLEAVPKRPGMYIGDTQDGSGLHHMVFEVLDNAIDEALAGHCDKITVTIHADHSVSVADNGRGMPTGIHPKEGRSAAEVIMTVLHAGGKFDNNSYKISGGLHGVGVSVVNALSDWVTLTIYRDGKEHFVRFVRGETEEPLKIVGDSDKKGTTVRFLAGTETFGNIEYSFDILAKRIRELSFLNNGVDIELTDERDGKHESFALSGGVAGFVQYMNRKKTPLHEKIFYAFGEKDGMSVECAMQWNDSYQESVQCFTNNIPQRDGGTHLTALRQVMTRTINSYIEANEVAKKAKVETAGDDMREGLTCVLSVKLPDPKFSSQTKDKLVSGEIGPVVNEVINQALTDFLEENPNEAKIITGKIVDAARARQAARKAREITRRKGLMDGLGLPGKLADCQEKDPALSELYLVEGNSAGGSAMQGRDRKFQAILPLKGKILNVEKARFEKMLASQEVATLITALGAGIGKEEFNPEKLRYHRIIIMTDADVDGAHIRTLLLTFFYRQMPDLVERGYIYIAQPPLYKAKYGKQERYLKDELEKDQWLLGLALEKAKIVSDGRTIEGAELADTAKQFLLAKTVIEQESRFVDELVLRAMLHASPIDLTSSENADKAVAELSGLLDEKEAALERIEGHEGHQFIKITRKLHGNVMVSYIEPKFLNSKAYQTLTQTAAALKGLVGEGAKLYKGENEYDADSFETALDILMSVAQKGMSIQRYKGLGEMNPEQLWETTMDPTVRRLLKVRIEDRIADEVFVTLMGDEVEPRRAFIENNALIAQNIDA
# T2 sequence (P48371 whole entry D95G): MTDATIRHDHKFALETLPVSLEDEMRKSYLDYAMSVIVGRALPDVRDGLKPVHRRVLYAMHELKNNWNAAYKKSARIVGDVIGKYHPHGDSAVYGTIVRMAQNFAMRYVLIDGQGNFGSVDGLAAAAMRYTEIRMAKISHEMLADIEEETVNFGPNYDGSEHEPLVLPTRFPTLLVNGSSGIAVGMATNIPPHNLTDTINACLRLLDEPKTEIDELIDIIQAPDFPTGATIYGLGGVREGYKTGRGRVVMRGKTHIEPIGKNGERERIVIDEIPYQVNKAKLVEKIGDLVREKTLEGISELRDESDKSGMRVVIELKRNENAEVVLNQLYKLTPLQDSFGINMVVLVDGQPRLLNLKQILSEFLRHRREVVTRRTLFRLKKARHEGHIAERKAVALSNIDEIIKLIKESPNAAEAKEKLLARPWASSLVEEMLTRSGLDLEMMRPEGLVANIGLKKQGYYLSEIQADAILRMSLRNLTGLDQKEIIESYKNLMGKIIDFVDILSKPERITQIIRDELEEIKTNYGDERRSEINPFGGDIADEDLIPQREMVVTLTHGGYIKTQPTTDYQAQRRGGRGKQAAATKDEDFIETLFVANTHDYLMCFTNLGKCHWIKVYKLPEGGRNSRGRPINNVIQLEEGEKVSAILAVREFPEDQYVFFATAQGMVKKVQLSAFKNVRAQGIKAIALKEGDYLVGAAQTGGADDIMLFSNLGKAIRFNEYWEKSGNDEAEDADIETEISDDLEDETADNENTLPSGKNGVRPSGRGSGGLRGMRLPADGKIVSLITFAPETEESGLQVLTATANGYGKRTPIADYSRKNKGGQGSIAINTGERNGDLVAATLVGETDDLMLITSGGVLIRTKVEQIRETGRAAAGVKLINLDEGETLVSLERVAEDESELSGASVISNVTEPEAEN
# T2 sequence (P22118 whole entry partner): as the sequence (P22118 whole entry partner) above
# Chain of N. gonorrhoeae topoisomerase IV ParC^E91G (Neisseria gonorrhoeae, UniProt P48374, E91G) (P48374 whole entry E91G): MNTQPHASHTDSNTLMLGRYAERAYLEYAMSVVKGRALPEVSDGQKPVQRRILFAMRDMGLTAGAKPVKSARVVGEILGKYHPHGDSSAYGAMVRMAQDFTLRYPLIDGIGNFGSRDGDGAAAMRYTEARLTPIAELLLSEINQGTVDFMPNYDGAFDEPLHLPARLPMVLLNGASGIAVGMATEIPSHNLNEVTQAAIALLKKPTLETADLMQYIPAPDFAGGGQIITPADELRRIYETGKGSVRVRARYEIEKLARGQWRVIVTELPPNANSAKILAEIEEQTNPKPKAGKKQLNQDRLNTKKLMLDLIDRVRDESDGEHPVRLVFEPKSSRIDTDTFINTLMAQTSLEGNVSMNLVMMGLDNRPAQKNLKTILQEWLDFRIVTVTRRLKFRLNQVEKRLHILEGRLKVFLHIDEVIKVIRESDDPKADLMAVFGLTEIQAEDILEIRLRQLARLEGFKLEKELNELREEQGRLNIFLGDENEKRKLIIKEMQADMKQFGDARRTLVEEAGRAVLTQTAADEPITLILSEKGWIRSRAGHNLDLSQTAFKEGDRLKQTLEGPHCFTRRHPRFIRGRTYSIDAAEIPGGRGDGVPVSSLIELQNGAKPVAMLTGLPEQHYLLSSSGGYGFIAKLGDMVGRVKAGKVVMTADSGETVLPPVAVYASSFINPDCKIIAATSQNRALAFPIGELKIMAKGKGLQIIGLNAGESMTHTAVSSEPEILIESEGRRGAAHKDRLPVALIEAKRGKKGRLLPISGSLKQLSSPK
smiles,measurement,setting,value
O=c1ccc2ncc(=O)n3c2n1C[C@H]3CN1CCC(NCc2cc3c(cn2)OCCC3)CC1 [gepotidacin],"Adj-Max Cleavage, single-stranded DNA breaks",[1],9.3%
same,EC50,"[1]; ParC D86N topoisomerase IV, read-out: CC50, single-stranded DNA cleavage",> 50000 nM
same,IC50,"[2]; GyrA D95G gyrase, read-out: IC50, inhibition of DNA supercoiling",2000 nM
same,fold lower supercoiling IC50 vs WT gyrase,[2]; GyrA D95G vs WT,~2.6 fold
same,EC50,[3],200 nM
same,fold decrease of Adj-Max Cleavage vs WT,[4],~3.2 fold
same,"Adj-Max Cleavage, single-stranded DNA breaks",[5],3.9%
same,EC50,"[5]; GyrA S91F/D95G gyrase, read-out: CC50, single-stranded DNA cleavage",800 nM
same,fold decrease of adjusted maximal DNA cleavage vs WT,[5]; GyrA S91F/D95G vs WT,~4.4 fold
same,MIC,[6],0.5 µg/mL
